From BindingDB's records for doi:10.1021/jm060797q (Teikyo University, 2006)

Experiment: Antagonist activity against 1-alpha,25-dihydroxy vitamin D3-induced HL60 cell differentiation by NBT reduction method

Structure (SMILES)	IC50
C=C1/C(=C\C=C2/CCC[C@]3(C)[C@@H]([C@H](C)C[C@@H]4OC(=O)C(=C)[C@H]4CCCC)CC[C@@H]23)C[C@@H](O)[C@H](C)[C@@H]1O	6.7 nM
C=C1/C(=C\C=C2/CCC[C@]3(C)[C@@H]([C@H](C)C[C@@H]4OC(=O)C(=C)[C@H]4CC)CC[C@@H]23)C[C@@H](O)[C@H](CCCO)[C@@H]1O	8.4 nM
C=C1/C(=C\C=C2/CCC[C@]3(C)[C@@H]([C@H](C)C[C@H]4OC(=O)C(=C)[C@@H]4CCCC)CC[C@@H]23)C[C@@H](O)[C@H](C)[C@@H]1O	6.7 nM
C=C1C(=O)O[C@H](C[C@@H](C)[C@H]2CC[C@H]3/C(=C/C=C4/C[C@@H](O)C[C@H](O)C4=C)CCC[C@]23C)[C@@H]1CCC	6 nM
C=C1/C(=C\C=C2/CCC[C@]3(C)[C@@H]([C@H](C)C[C@H]4OC(=O)C(=C)[C@@H]4CCCC)CC[C@@H]23)C[C@@H](O)C[C@@H]1O	8.2 nM
C=C1/C(=C\C=C2/CCC[C@]3(C)[C@@H]([C@H](C)C[C@@H]4OC(=O)C(=C)[C@H]4CCCC)CC[C@@H]23)C[C@@H](O)[C@H](CCCO)[C@@H]1O	8.8 nM
C=C1/C(=C\C=C2/CCC[C@]3(C)[C@@H]([C@H](C)C[C@H]4OC(=O)C(=C)[C@@H]4CC)CC[C@@H]23)C[C@@H](O)[C@H](OCCCO)[C@@H]1O	8.4 nM
C=C1/C(=C\C=C2/CCC[C@]3(C)[C@@H]([C@H](C)C[C@H]4OC(=O)C(=C)[C@H]4CCC)CC[C@@H]23)C[C@@H](O)[C@H](CCCO)[C@@H]1O	6.3 nM
C=C1/C(=C\C=C2/CCC[C@]3(C)[C@@H]([C@H](C)C[C@@H]4OC(=O)C(=C)[C@@H]4CCC)CC[C@@H]23)C[C@@H](O)[C@H](CCCO)[C@@H]1O	6.3 nM
C=C1/C(=C\C=C2/CCC[C@]3(C)[C@@H]([C@H](C)C[C@H]4OC(=O)C(=C)[C@H]4CC)CC[C@@H]23)C[C@@H](O)[C@H](OCCCO)[C@@H]1O	8.4 nM
C=C1/C(=C\C=C2/CCC[C@]3(C)[C@@H]([C@H](C)C[C@@H]4OC(=O)C(=C)[C@@H]4CC(C)C)CC[C@@H]23)C[C@@H](O)[C@H](OCCCO)[C@@H]1O	9.3 nM
C=C1C(=O)O[C@H](C[C@@H](C)[C@H]2CC[C@H]3/C(=C/C=C4/C[C@@H](O)[C@H](C)[C@H](O)C4=C)CCC[C@]23C)[C@@H]1C	8.1 nM
C=C1/C(=C\C=C2/CCC[C@]3(C)[C@@H]([C@H](C)C[C@@H]4OC(=O)C(=C)[C@@H]4C)CC[C@@H]23)C[C@@H](O)[C@H](OCCCO)[C@@H]1O	6.1 nM
C=C1/C(=C\C=C2/CCC[C@]3(C)[C@@H]([C@H](C)C[C@@H]4OC(=O)C(=C)[C@H]4CC(C)C)CC[C@@H]23)C[C@@H](O)[C@H](C)[C@@H]1O	11 nM
C=C1/C(=C\C=C2/CCC[C@]3(C)[C@@H]([C@H](C)C[C@H]4OC(=O)C(=C)[C@@H]4CC)CC[C@@H]23)C[C@@H](O)[C@H](CCCO)[C@@H]1O	8.4 nM
C=C1C(=O)O[C@H](C[C@@H](C)[C@H]2CC[C@H]3/C(=C/C=C4/C[C@@H](O)C[C@H](O)C4=C)CCC[C@]23C)[C@@H]1CC(C)C	10 nM
C=C1/C(=C\C=C2/CCC[C@]3(C)[C@@H]([C@H](C)C[C@H]4OC(=O)C(=C)[C@@H]4CC)CC[C@@H]23)C[C@@H](O)C[C@@H]1O	8.6 nM
C=C1/C(=C\C=C2/CCC[C@]3(C)[C@@H]([C@H](C)C[C@@H]4OC(=O)C(=C)[C@H]4CCC)CC[C@@H]23)C[C@@H](O)[C@H](OCCCO)[C@@H]1O	6.3 nM
C=C1/C(=C\C=C2/CCC[C@]3(C)[C@@H]([C@H](C)C[C@H]4OC(=O)C(=C)[C@@H]4CC(C)C)CC[C@@H]23)C[C@@H](O)[C@H](CCCO)[C@@H]1O	9.3 nM
C=C1/C(=C\C=C2/CCC[C@]3(C)[C@@H]([C@H](C)C[C@H]4OC(=O)C(=C)[C@H]4CC(C)C)CC[C@@H]23)C[C@@H](O)[C@H](OCCCO)[C@@H]1O	9.3 nM
C=C1/C(=C\C=C2/CCC[C@]3(C)[C@@H]([C@H](C)C[C@@H]4OC(=O)C(=C)[C@@H]4CC(C)C)CC[C@@H]23)C[C@@H](O)[C@H](CCCO)[C@@H]1O	9.3 nM
C=C1/C(=C\C=C2/CCC[C@]3(C)[C@@H]([C@H](C)C[C@@H]4OC(=O)C(=C)[C@@H]4C)CC[C@@H]23)C[C@@H](O)[C@H](CCCO)[C@@H]1O	6.2 nM
